Read-outs that look alike come from different tables or passages of the source.

The test system of one assay is PBMCs. In words: Treatment of PBMCs from healthy donors with USP10-targeting inhibitors. The conditions noted are these: Homo sapiens, 24 hr assay. Format: cell-based, human. The source says:
(§1) Nomo-1, P31-FUJ, and NB4 were obtained from Dr. Gary Gilliland. MV4, 11 cells were obtained from Dr. Anthony Letai. Hel, K562, THP, U937, TF-1 and K052 cells were purchased from the American Type Culture Collection (ATCC) (Manassas, Va., USA). […] Cell lines were submitted for cell line authentication and were authenticated within 6 months of manuscript preparation through cell line short tandem repeat (STR) profiling (DDC Medical, Fairfield, Ohio and Molecular Diagnostics Laboratory, Dana Farber Cancer Institute). […] PBMCs were generously provided by Dr. Steven Treon and Dr. Guang Yang.
(§2) The CellTiter-Glo® assay (Promega, Madison, Wis.) was used for proliferation studies and carried out according to manufacturer instructions. Cell viability is reported as percentage of control (untreated) cells, and error bars represent the standard error of the mean for each data point.

Assay [1] deals with AML primagraft (D835Y+, FLT3-ITD+) cells. In words: Treatment of mutant FLT3-expressing AML primagraft cells ex vivo. It is filed as cell-based, human. The note with it: Homo sapiens; 24 hr assay; read-out: IC50 (+/−S.D.) AML primagraft (D835Y+, FLT3-ITD+). The protocol:
All animal studies were performed according to protocols approved by the Dana-Farber Cancer Institute's Institutional Animal Care and Use Committee. […] Mice were sacrificed on day 21 of treatment. Bone marrow was flushed from mouse femurs, and spleens and livers were dissected and preserved first in formalin, followed 24 hours later by preservation in 70% ethanol. […] All AML primagraft samples used in the studies described herein were obtained through the Public Repository of Xenografts (proxe.org).
as §2

In assay [2] the target is T1, human USP10 (residues 376-798) (Homo sapiens, UniProt Q14694).
T1 construct: A construct of human USP10 covering residues 376-798 in the pET28a vector; His-tag (cleaved yes); made in house; host or cells: E. coli BL21 (DE3)
T1 sequence (Q14694 376-798): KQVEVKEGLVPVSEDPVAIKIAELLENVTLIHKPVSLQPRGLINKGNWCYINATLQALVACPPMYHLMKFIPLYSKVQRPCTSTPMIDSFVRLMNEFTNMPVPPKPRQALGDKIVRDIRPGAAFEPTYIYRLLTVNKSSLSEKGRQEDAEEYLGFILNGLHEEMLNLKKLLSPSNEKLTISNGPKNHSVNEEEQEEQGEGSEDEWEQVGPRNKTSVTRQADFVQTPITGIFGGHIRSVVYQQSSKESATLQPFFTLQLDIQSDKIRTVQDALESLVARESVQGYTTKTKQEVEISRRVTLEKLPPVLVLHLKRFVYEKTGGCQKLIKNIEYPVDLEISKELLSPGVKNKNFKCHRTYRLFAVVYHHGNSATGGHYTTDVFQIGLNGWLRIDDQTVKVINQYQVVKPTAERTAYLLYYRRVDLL
In words: In vitro USP10 activity assay (Ubiquitin-AMC). Format: biochemical. The conditions noted are these: ubiquitin-AMC as substrate; purified enzyme; read-out: USP10 biochemical IC50. The protocol:
Protein expression and purification. A construct of human USP10 covering residues 376-798 in the pET28a vector was over-expressed in E. coli BL21 (DE3) in TB medium in the presence of […] of kanamycin. Cells were grown at 37° C. to an OD of 0.8, cooled to 17° C., induced with 500 μM isopropyl-1-thio-D-galactopyranoside, incubated overnight at 17° C., collected by centrifugation, and stored at −80° C. Cell pellets were sonicated in buffer A (50 mM HEPES (pH 7.5), 300 mM NaCl, 10% glycerol, 10 mM Imidazole, and 3 mM BME) and the resulting lysate was centrifuged at 30,000×g for 30 min. Ni-NTA beads (Qiagen) were mixed with lysate supernatant for 30 min and washed with buffer A. Beads were transferred to an FPLC-compatible column and the bound protein was washed with 15% buffer B (50 mM HEPES (pH 7.5), 300 mM NaCl, 10% glycerol, 300 mM Imidazole, and 3 mM BME) and eluted with 100% buffer B. Thrombin was added to the eluted protein and incubated at 4° C. overnight. The sample was then passed through a HiPrep 26/10 desalting column (GE Healthcare) pre-equilibrated with buffer A without imidazole, and the eluted protein was subjected to a second Ni-NTA step to remove His-tag and Thrombin. The eluent was concentrated and passed through a Superdex® 200 10/300GL column (GE Healthcare) in a buffer containing 20 mM HEPES (pH 7.5), 150 mM NaCl, and 1 mM DTT. Fractions were pooled, concentrated to 20 mg/ml, and frozen at −80° C.
In vitro USP10 activity assay. Recombinant USP10, residues 376-798, was tested for its activity in a Ubiquitin-AMC assay in presence or absence of inhibitors. For this assay, 10 nM USP10 were pre-incubated with different concentrations of inhibitors or DMSO as a control in 50 mM HEPES pH7.6, 0.5 mM EDTA, 11 uM ovalbumin, and 5 mM DTT. The reaction was incubated for 6 hours at room temperature prior to the addition of 2 uM Ubiquitin-AMC (Boston Biochem) substrate. The initial rate of the reaction was measured by collecting fluorescence data at one minute intervals over 30-minute period using a CLARIOstar® fluorescence plate reader at excitation and emission wavelength of 345 and 445 nm, respectively. The calculated initial rate values were plotted against inhibitor concentrations to determine IC50 values.

For the next assay, the system named is MOLM14 cells. Nature of the assay: Immunoblot of FLT3, Beclin-1, AKT, ERK1/ERK2 in MOLM14 cells. Format: cell-based, human. The conditions noted are these: approximately 23 hours of treatment. The source says: (§3) The following antibodies were purchased from Cell Signaling Technology (Danvers, Mass.): total AKT (rabbit, #9272) and total p44/42 MAPK (Erk1/2) (3A7) (mouse, #9107) were used at 1:1000 dilution. Anti-GAPDH (D16H-11) XP (R) (rabbit mAb, #5174) was used at 1:1000 dilution. Beclin-1 (rabbit, #3738) was used at 1:1000. USP10 (D7A5) (rabbit, #8501) was used at 1:1000 dilution. P53 (rabbit, #9282) was used at 1:1000 dilution. β-tubulin (rabbit, #2146s) was used 1:1000.
(§4) FLT3/Flk-2 (C-20) (sc-479) and Ub (P4D1) (mouse, sc-8017) were purchased from Santa Cruz Biotechnology, Inc. (Dallas, Tex.) and used at 1:1000 dilution for immunoblotting. Anti-pTyr (mouse, clone 4G10) was purchased from Upstate Biotechnology (Lake Placid, N.Y.) and was used at 1:1000 dilution. Anti-HAUSP/USP7 antibody (rabbit, ab4080) and anti-ubiquitin antibody (rabbit, ab7780) were purchased from Abcam (Cambridge, Mass.) and used at 1:1000 dilution.
(§5) Protein lysate preparation, immunoblotting, and immunoprecipitation were carried out as previously described in Weisberg et al. (2002) Cancer Cell 1:433-443.
A general note: A western blot detects proteins with antibodies after separation by electrophoresis.

A further assay relates to USP10. In words: USP10 target engagement in cells, labeling with HA-Ub-VS. Format: cell-based. The note with it: lysates from live treated cells.
Assay [3] deals with Ba/F3-FLT3-ITD cells. In words: Proliferation of Ba/F3-FLT3-ITD cells. Format: cell-based, murine. The conditions noted are these: concentration up to 20 μM; approximately 72 hours.
Source text: as §1, §2

Assay [4] relates to Ba/F3-FLT3-ITD cells. In words: Immunoblot of FLT3 / Beclin-1 in Ba/F3-FLT3-ITD cells. Format: cell-based, murine. The conditions noted are these: concentration up to 20 μM.
Source text: as §3, §4, §5

Assay [5] deals with primary tumor cells from FLT3-ITD positive AML patients and FLT3 mutant primagrafts. In words: Survival of primary AML patient cells and FLT3 mutant primagrafts. It is filed as cell-based, human. The note with it: approximately 72 hrs of treatment. The source says: The trypan blue exclusion assay has been previously described in Weisberg et al. (2002) Cancer Cell 1:433-443 and was used for quantification of cells prior to seeding for CellTiter-Glo® assays. The CellTiter-Glo® assay (Promega, Madison, Wis.) was used for proliferation studies and carried out according to manufacturer instructions. Cell viability is reported as percentage of control (untreated) cells, and error bars represent the standard error of the mean for each data point.
Mononuclear cells were isolated from samples from AML patients identified as harboring mutant FLT3. Cells were tested in liquid culture (DMEM supplemented with 20% FBS) in the presence of different concentrations of single and combined agents. All blood and bone marrow samples from AML patients were obtained under approval of the Dana Farber Cancer Institute Institutional Review Board.

As to `CS(=O)(=O)c1ccc(NC(=O)c2cc(C#N)c(Sc3c(Cl)cncc3Cl)s2)cc1` [1247825-37-1, reference compound], the IC50 in the assay with PBMCs (PBMC#1, read-out: IC50 (+/−S.D.) PBMC#1) turned out to be 14.9 µM; in the assay with PBMCs (PBMC#2, read-out: IC50 (+/−S.D.) PBMC#2), 16.6 µM; in assay [1] it was 2.5 µM; in assay [2], 36 µM. Further, the “Expression of AKT and ERK1/ERK2 downstream of FLT3” value in the assay with MOLM14 cells is “unchanged”. Moreover, the “Inhibitor concentration blocking USP10 labeling by HA-Ub-VS” value with USP10 is reported as “low micromolar range”.

As for `O=C(CCc1ccccc1)N1CCC(O)(Cn2cnc3cc(Cl)ccc3c2=O)CC1` [Compound 2], in the assay on Ba/F3-FLT3-ITD cells [3], the Cell viability result is “little impact on cell viability”. For the same compound, in the assay with Ba/F3-FLT3-ITD cells [4], the FLT3 levels entry was “did not lead to reduced FLT3 levels”. For the same compound, in assay [5], the “Survival of patient samples and primagrafts” value is “little to no effect”.
